Experimental data from ChEMBL document CHEMBL1133765, “QSAR model for drug human oral bioavailability” (J Med Chem, 2000).

Legend:
[1] = octanol/water
clinical = conditions: human, in vivo, po
physchem [2] = conditions: octanol/water, pH 6.5
physchem [3] = assay: physchem
[4] = octanol/water; remark: listed apart in the source
physchem [5] = conditions: octanol/water

SMILES | delta logD [1] | bioavailability (clinical; F) [%] | logD (physchem [2]) | bioavailability (clinical) [%] | pKa (physchem [3]) | delta logD [4] | logD (physchem [5]; pH 6.5) | logD (physchem [5]; pH 6.5, logD)
CCCCNc1cc(C(=O)O)cc(S(N)(=O)=O)c1Oc1ccccc1 [BUMETANIDE] | 0.9 | ≥ 80 | -1.84 |  |  |  |  | 
COC(=O)Nc1nc2ccc(C(=O)c3ccccc3)cc2[nH]1 [MEBENDAZOLE] | 0 | ≤ 20 | 2.83 |  |  |  |  | 
CN1C(=O)NC(=O)C(C)(C2=CCCCC2)C1=O (stereo not drawn) [HEXOBARBITAL] | 0.04 |  | 1.48 | ≥ 80 | 8.3 |  |  | 
C[C@]12C=CC(=O)C=C1CC[C@@H]1[C@@H]2C(=O)C[C@@]2(C)[C@H]1CC[C@]2(O)C(=O)CO [PREDNISONE] |  | > 80 |  |  |  | 0 |  | 
Cc1ccnc2c1NC(=O)c1cccnc1N2C1CC1 [NEVIRAPINE] |  |  | 1.92 | ≥ 80 |  |  |  | 
O=c1ccc2ccccc2o1 [COUMARIN] |  | < 20 |  |  |  |  |  | 
CCO [ALCOHOL] |  | > 80 |  |  |  |  |  | 
Nc1ccc(S(=O)(=O)Nc2ncccn2)cc1 [SULFADIAZINE] | 0.65 | ≥ 80 | -0.39 |  |  |  |  | 
CC[C@H](C)C(=O)O[C@H]1C[C@@H](C)C=C2C=C[C@H](C)[C@H](CC[C@@H]3C[C@@H](O)CC(=O)O3)[C@H]21 [LOVASTATIN] | 0 |  | 4.26 |  |  |  |  | 
CCCNC(=O)NS(=O)(=O)c1ccc(Cl)cc1 [CHLORPROPAMIDE] | 0.89 | ≥ 80 | 0.76 |  | 5 |  |  | 
COC(=O)C1=C(C)NC(C)=C(C(=O)OC)C1c1ccccc1[N+](=O)[O-] [NIFEDIPINE] |  |  |  | 79 |  |  |  | 
CC1CCCC(C)N1CCCC(O)(c1ccccc1)c1ccccn1 (stereo not drawn) [PIRMENOL] | -0.9 | ≥ 80 | -0.53 |  | 10.2 |  |  | 
CC1=NS(=O)(=O)c2cc(Cl)ccc2N1 [DIAZOXIDE] | 0.03 | ≥ 80 | 1.2 |  | 8.5 |  |  | 
O=c1[nH]c2ccccc2n1C1CCN(CCCC(c2ccc(F)cc2)c2ccc(F)cc2)CC1 [PIMOZIDE] |  |  |  |  | 7.3 |  | 5.42 | 
CC(C(=O)O)c1ccc(-c2ccccc2)c(F)c1 (stereo not drawn) [FLURBIPROFEN] | 0.9 |  | 1.81 | ≥ 80 | 4.2 |  |  | 
CC(=O)[C@H]1CC[C@H]2[C@@H]3CCC4=CC(=O)CC[C@]4(C)[C@H]3CC[C@]12C [PROGESTERONE] |  |  |  | < 20 |  | 0 |  | 
COc1cc(Cc2cnc(N)nc2N)cc(OC)c1OC [TRIMETHOPRIM] |  | > 80 |  |  |  |  |  | 
CN(C)CCC(c1ccc(Cl)cc1)c1ccccn1 (stereo not drawn) [CHLORPHENIRAMINE] | -0.89 |  | 0.69 |  |  |  |  | 
C[C@]12CC[C@H]3[C@@H](CCC4=CC(=O)CC[C@@]43C)[C@@H]1CC[C@@H]2O [TESTOSTERONE] |  |  |  | < 20 |  | 0 |  | 
CCCC(CCC)C(=O)O [VALPROIC ACID] | 0.89 | ≥ 80 | 1.04 |  |  |  |  | 
CN(CCCN1c2ccccc2CCc2ccccc21)CC(=O)c1ccc(Cl)cc1 [LOFEPRAMINE] | -0.32 | ≤ 20 | 4.58 |  | 6.7 |  |  | 
COc1ccc(Cl)cc1C(=O)NCCc1ccc(S(=O)(=O)NC(=O)NC2CCCCC2)cc1 [GLYBURIDE] | 0.87 | ≥ 80 | 1.85 |  | 5.3 |  |  | 

SMILES | delta logD [1] | bioavailability (clinical; F) [%] | logD (physchem [2]) | bioavailability (clinical) [%] | pKa (physchem [3]) | delta logD [4] | logD (physchem [5]; pH 6.5) | logD (physchem [5]; pH 6.5, logD)
CCc1cccc2c3c([nH]c12)C(CC)(CC(=O)O)OCC3 (stereo not drawn) [ETODOLAC] |  | ≥ 80 |  |  | 4.7 |  |  | 
CN1C(=O)CC(=O)N(c2ccccc2)c2cc(Cl)ccc21 [CLOBAZAM] | 0 |  | 0.95 | ≥ 80 |  |  |  | 
NC(=O)CCCCc1ccccc1 | 0 | ≥ 80 | 0.13 |  |  |  |  | 
Cc1cccc(C)c1NC(=O)C(C)N (stereo not drawn) [TOCAINIDE] | -0.78 | ≥ 80 | -0.56 |  |  |  |  | 
CC(C)NCC(O)COc1ccc(COCCOC(C)C)cc1 (stereo not drawn) [BISOPROLOL] | -0.89 |  | -0.83 |  | 9.2 |  |  | 
O=C(O)CCc1nc(-c2ccccc2)c(-c2ccccc2)o1 [OXAPROZIN] | 0.84 | ≥ 80 | 3.41 |  | 5.8 |  |  | 
Cc1ncc([N+](=O)[O-])n1CCO [METRONIDAZOLE] | 0 | ≥ 80 |  |  |  |  |  | 
CCC1(CCC(C)C)C(=O)NC(=O)NC1=O [AMOBARBITAL] | 0.13 |  | 2.05 | ≥ 80 |  |  |  | 
O=C(NCCNCC(O)COc1ccc(O)cc1)N1CCOCC1 (stereo not drawn) [XAMOTEROL] | -0.78 | ≤ 20 | -0.8 |  | 7.8 |  |  | 
O=c1[nH]c2ccccc2n1CCCN1CCC(n2c(=O)[nH]c3cc(Cl)ccc32)CC1 [DOMPERIDONE] |  |  |  |  |  |  | 2.83 | 
Cc1ccc(C)c(OCCCC(C)(C)C(=O)O)c1 [GEMFIBROZIL] | 0.89 | ≥ 80 | 1.47 |  | 4.8 |  |  | 
NNc1nncc2ccccc12 [HYDRALAZINE] | -0.61 | ≤ 20 | 0.14 |  |  |  |  | 
Oc1ncnc2[nH]ncc12 [ALLOPURINOL] | 0 |  | -0.55 | ≥ 80 |  |  |  | 
O=C(c1ccccc1)c1ccc2n1CCC2C(=O)O (stereo not drawn) [KETOROLAC] | 0.9 | ≥ 80 | -1.34 |  |  |  |  | 
Cc1c(OCC(F)(F)F)ccnc1C[S+]([O-])c1nc2ccccc2[nH]1 (stereo not drawn) [LANSOPRAZOLE] |  |  | 1.73 | ≥ 80 |  |  |  | 
NC(=O)N1c2ccccc2C=Cc2ccccc21 [CARBAMAZEPINE] | 0 | ≥ 80 |  |  |  |  |  | 
Cc1ccc(C(=O)c2ccc(CC(=O)O)n2C)cc1 [TOLMETIN] | 0.9 | ≥ 80 | -0.21 |  |  |  |  | 
COc1ccc2cc(CCC(C)=O)ccc2c1 [NABUMETONE] | 0 | ≤ 20 | 2.83 |  |  |  |  | 
O=C(NCC1CCCCN1)c1cc(OCC(F)(F)F)ccc1OCC(F)(F)F (stereo not drawn) [FLECAINIDE] | -0.9 | ≥ 80 | 0.24 |  |  |  |  | 
CC(C)N(CCC(C(N)=O)(c1ccccc1)c1ccccn1)C(C)C (stereo not drawn) [DISOPYRAMIDE] | -0.9 |  | -1.08 | ≥ 80 | 10.4 |  |  | 
CCCN(CCC)S(=O)(=O)c1ccc(C(=O)O)cc1 [PROBENECID] | 0.9 | ≥ 80 | 0.11 |  | 3.4 |  |  | 
CN1C(C(=O)Nc2ccccn2)=C(O)c2sccc2S1(=O)=O [TENOXICAM] | 0.88 | ≥ 80 | 0.56 |  | 5.1 |  |  | 

SMILES | delta logD [1] | bioavailability (clinical; F) [%] | logD (physchem [2]) | bioavailability (clinical) [%] | pKa (physchem [3]) | delta logD [4] | logD (physchem [5]; pH 6.5) | logD (physchem [5]; pH 6.5, logD)
O=C1OC(c2ccc(O)cc2)(c2ccc(O)cc2)c2ccccc21 [PHENOLPHTHALEIN] | 0 | ≤ 20 | 2.41 |  |  |  |  | 
Cc1[nH]c(=O)c(C#N)cc1-c1ccncc1 [MILRINONE] | -0.02 | ≥ 80 | 0.68 |  | 5.2 |  |  | 
Nc1cc(-c2ccncc2)c[nH]c1=O [INAMRINONE] | -0.02 | ≥ 80 | -0.72 |  | 5.2 |  |  | 
CCCNC1CCc2nc(N)sc2C1 (stereo not drawn) | -0.9 | ≥ 80 | -2.9 |  | 11 |  |  | 
CN(C)CCCN1c2ccccc2CCc2ccc(Cl)cc21 [CLOMIPRAMINE] |  |  | 2.49 |  |  |  |  | 
C1COC(NC(C2CC2)C2CC2)=N1 [RILMENIDINE] | -0.9 | ≥ 80 | -0.94 |  | 9.3 |  |  | 
C=CCc1ccccc1OCC(O)CNC(C)C (stereo not drawn) [ALPRENOLOL] | -0.89 | ≤ 20 | 0.4 |  |  |  |  | 
N#Cc1ccccc1OCC(O)CNCCNC(=O)Cc1ccc(O)cc1 (stereo not drawn) [EPANOLOL] | -0.77 | ≤ 20 | -0.4 |  | 7.8 |  |  | 
O=[N+]([O-])C1O[C@H]2[C@H](OC[C@H]2O)[C@H]1O (stereo partly drawn) | 0 | ≥ 80 | -0.15 |  |  |  |  | 
COCCc1ccc(OCC(O)CNC(C)C)cc1 (stereo not drawn) [METOPROLOL] |  | 49 |  |  |  |  |  | -1.32
CC(C)(C)NCC(O)COc1cccc2c1CCC(=O)N2 (stereo not drawn) [CARTEOLOL] | -0.89 | ≥ 80 | -1.35 |  | 9.2 |  |  | 
C[C@]12C=CC(=O)C=C1CC[C@@H]1[C@@H]2[C@@H](O)C[C@@]2(C)[C@H]1CC[C@]2(O)C(=O)CO [PREDNISOLONE] |  |  |  |  |  | 0 |  | 
CCN(CC)C(=O)N[C@H]1C[C@@H]2c3cccc4[nH]cc(c34)C[C@H]2N(C)C1 [TERGURIDE] | -0.32 |  | 2.05 | ≤ 20 | 6.8 |  |  | 
CC(C)(C)NCC(O)c1cc(Cl)c(N)c(C(F)(F)F)c1 (stereo not drawn) [MABUTEROL] | -0.9 |  | -0.03 | ≥ 80 | 9.7 |  |  | 
O=[N+]([O-])C1O[C@H]2[C@H](OC[C@@H]2O)[C@@H]1O (stereo partly drawn) | 0 | ≥ 80 | -0.4 |  |  |  |  | 
O=C1Nc2ccc(Cl)cc2C(c2ccccc2Cl)=NC1O (stereo not drawn) [LORAZEPAM] | 0 |  |  | ≥ 80 |  |  |  | 
COc1ccc(C(CN(C)C)C2(O)CCCCC2)cc1 (stereo not drawn) [VENLAFAXINE] |  |  | -2.29 | ≤ 20 |  |  |  | 
Sc1ncnc2nc[nH]c12 [MERCAPTOPURINE ANHYDROUS] | -0.72 | ≤ 20 | -1.12 |  | 7.6 |  |  | 
CNC1(c2ccccc2Cl)CCCCC1=O (stereo not drawn) [KETAMINE] |  |  | 1.14 | ≤ 20 |  |  |  | 
CCCCNC(=O)NS(=O)(=O)c1ccc(C)cc1 [TOLBUTAMIDE] |  | ≥ 80 |  |  | 5.3 |  |  | 
CCC1(c2cccc(O)c2)CCCCN(C)C1 (stereo not drawn) [MEPTAZINOL] | -0.88 |  | 0.71 | ≤ 20 | 8.7 |  |  | 
